This is an account of results in article PMC11301636, “Supramolecular delivery of dinuclear ruthenium and osmium MCU inhibitors” (Inorganic Chemistry Frontiers, 2024).

Assay [1] addresses T1, mitochondrial calcium uniporter (MCU) (Homo sapiens, UniProt Q8NE86).
T1 sequence (Q8NE86 51-351): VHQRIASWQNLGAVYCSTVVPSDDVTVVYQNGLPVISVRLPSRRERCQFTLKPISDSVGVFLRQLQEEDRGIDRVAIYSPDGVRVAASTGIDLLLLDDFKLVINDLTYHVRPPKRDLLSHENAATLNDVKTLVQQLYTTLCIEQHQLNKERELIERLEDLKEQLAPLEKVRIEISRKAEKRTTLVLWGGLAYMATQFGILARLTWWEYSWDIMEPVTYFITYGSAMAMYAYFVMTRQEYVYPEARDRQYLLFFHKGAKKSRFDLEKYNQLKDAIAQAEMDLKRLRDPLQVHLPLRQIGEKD
Kind of assay: mCa2+ uptake inhibition in digitonin-permeabilized HEK293T cells. In kind it is cell-based.

Assay [2] has as its target T1, mitochondrial calcium uniporter (MCU). The assay is described as follows: mCa2+ uptake inhibition in digitonin-permeabilized HEK293T cells (Calcium Green 5N). In kind it is cell-based.

Take Os245: the values for the IC50 in assay [1] and in assay [2] were 90.9 ± 1.3 nM and 5.7 ± 0.3 nM, respectively.
